Assay results as given in ChEMBL document CHEMBL1201862, “PubChem BioAssay data set” (2004).
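Results reflect a 48-hour exposure of cells in 96-well plates to compound at five concentrations. At the GI50, growth is halved.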 The source made the active and inactive calls. Rule as the data show it: active = GI50 up to about 1.1 µM and inactive = higher.

Tests used:
Test in all cases: NCI anticancer screen, dose series, 48 h
786-0 = test system: 786-0
A549 = test system: A549
ACHN = test system: ACHN
CAKI-1 = test system: CAKI-1
CCRF-CEM = test system: CCRF-CEM
COLO 205 = test system: COLO 205
DLD-1 = test system: DLD-1
DMS-114 = test system: DMS-114
DMS-273 = test system: DMS-273
EKVX = test system: EKVX
HCC 2998 = test system: HCC 2998
HCT-116 = test system: HCT-116
HCT-15 = test system: HCT-15
HL-60 = test system: HL-60
HOP-18 = test system: HOP-18
HOP-62 = test system: HOP-62
HOP-92 = test system: HOP-92
HT-29 = test system: HT-29
IGROV-1 = test system: IGROV-1
KM-20L2 = test system: KM-20L2
KM12 = test system: KM12
LOX IMVI = test system: LOX IMVI
LXFL 529 = test system: LXFL 529
M14 = test system: M14
M19-MEL = test system: M19-MEL
MOLT-4 = test system: MOLT-4
Malme-3M = test system: Malme-3M
NCI-H226 = test system: NCI-H226
NCI-H23 = test system: NCI-H23
NCI-H460 = test system: NCI-H460
NCI-H522 = test system: NCI-H522
OVCAR-3 = test system: OVCAR-3
OVCAR-4 = test system: OVCAR-4
OVCAR-8 = test system: OVCAR-8
RXF 393 = test system: RXF 393
RXF 631 = test system: RXF 631
SF-268 = test system: SF-268
SF-295 = test system: SF-295
SF-539 = test system: SF-539
SK-MEL-28 = test system: SK-MEL-28
SK-MEL-2 = test system: SK-MEL-2
SK-MEL-5 = test system: SK-MEL-5
SK-OV-3 = test system: SK-OV-3
SN12C = test system: SN12C
SNB-19 = test system: SNB-19
SNB-75 = test system: SNB-75
SR = test system: SR
SW-620 = test system: SW-620
TK-10 = test system: TK-10
UACC-257 = test system: UACC-257
UACC-62 = test system: UACC-62
UO-31 = test system: UO-31
XF498 = test system: XF498
A498 = test system: A498
K562 = test system: K562
OVCAR-5 = test system: OVCAR-5
RPMI-8226 = test system: RPMI-8226
SNB-78 = test system: SNB-78
U-251 = test system: U-251
BT-549 = test system: BT-549
DU-145 = test system: DU-145
Hs-578T = test system: Hs-578T
MCF7 = test system: MCF7
MDA-MB-231 = test system: MDA-MB-231
MDA-MB-435 = test system: MDA-MB-435
MDA-N = test system: MDA-N
NCI/ADR-RES = test system: NCI/ADR-RES
PC-3 = test system: PC-3

Cc1cccc(NC(=O)/C(=N\N)C(c2cnc3ccc([N+](=O)[O-])cc3n2)[N+](=O)[O-])c1C (centres undefined)
GI50 (786-0): > 100 µM (inactive)
GI50 (A549): > 100 µM (inactive)
GI50 (ACHN): > 100 µM (inactive)
GI50 (CAKI-1): > 100 µM (inactive)
GI50 (CCRF-CEM): > 100 µM (inactive)
GI50 (COLO 205): > 100 µM (inactive)
GI50 (DLD-1): > 100 µM (inactive)
GI50 (DMS-114): 51.3 µM (inactive)
GI50 (DMS-273): > 100 µM (inactive)
GI50 (EKVX): > 100 µM (inactive)
GI50 (HCC 2998): > 100 µM (inactive)
GI50 (HCT-116): > 100 µM (inactive)
GI50 (HCT-15): 53.8 µM
GI50 (HL-60): > 100 µM (inactive)
GI50 (HOP-18): > 100 µM (inactive)
GI50 (HOP-62): > 100 µM (inactive)
GI50 (HOP-92): > 100 µM (inactive)
GI50 (HT-29): > 100 µM (inactive)
GI50 (IGROV-1): > 100 µM (inactive)
GI50 (KM-20L2): 71.8 µM (inactive)
GI50 (KM12): 41.8 µM (inactive)
GI50 (LOX IMVI): 74.8 µM (inactive)
GI50 (LXFL 529): > 100 µM (inactive)
GI50 (M14): > 100 µM (inactive)
GI50 (M19-MEL): > 100 µM (inactive)
GI50 (MOLT-4): > 100 µM (inactive)
GI50 (Malme-3M): > 100 µM (inactive)
GI50 (NCI-H226): > 100 µM (inactive)
GI50 (NCI-H23): > 100 µM (inactive)
GI50 (NCI-H460): > 100 µM (inactive)
GI50 (NCI-H522): 40.2 µM (inactive)
GI50 (OVCAR-3): > 100 µM (inactive)
GI50 (OVCAR-4): > 100 µM (inactive)
GI50 (OVCAR-8): > 100 µM (inactive)
GI50 (RXF 393): > 100 µM (inactive)
GI50 (RXF 631): > 100 µM (inactive)
GI50 (SF-268): > 100 µM (inactive)
GI50 (SF-295): > 100 µM (inactive)
GI50 (SF-539): > 100 µM (inactive)
GI50 (SK-MEL-28): > 100 µM (inactive)
GI50 (SK-MEL-2): > 100 µM (inactive)
GI50 (SK-MEL-5): > 100 µM (inactive)
GI50 (SK-OV-3): > 100 µM (inactive)
GI50 (SN12C): > 100 µM (inactive)
GI50 (SNB-19): > 100 µM (inactive)
GI50 (SNB-75): > 100 µM (inactive)
GI50 (SR): > 100 µM (inactive)
GI50 (SW-620): > 100 µM (inactive)
GI50 (TK-10): > 100 µM (inactive)
GI50 (UACC-257): > 100 µM (inactive)
GI50 (UACC-62): 66.2 µM (inactive)
GI50 (UO-31): > 100 µM (inactive)
GI50 (XF498): > 100 µM (inactive)

N#CC(C#N)=C1NC(=O)C(c2ccccc2)C(=O)N1 (centres undefined)
GI50 (786-0): > 100 µM (inactive)
GI50 (A498): > 100 µM (inactive)
GI50 (A549): > 100 µM (inactive)
GI50 (CAKI-1): > 100 µM (inactive)
GI50 (CCRF-CEM): > 100 µM (inactive)
GI50 (COLO 205): > 100 µM (inactive)
GI50 (DLD-1): > 100 µM (inactive)
GI50 (DMS-114): > 100 µM (inactive)
GI50 (DMS-273): > 100 µM (inactive)
GI50 (EKVX): > 100 µM (inactive)
GI50 (HCC 2998): > 100 µM (inactive)
GI50 (HCT-116): > 100 µM (inactive)
GI50 (HCT-15): > 100 µM
GI50 (HL-60): > 100 µM (inactive)
GI50 (HOP-62): > 100 µM (inactive)
GI50 (HOP-92): > 100 µM (inactive)
GI50 (HT-29): > 100 µM (inactive)
GI50 (IGROV-1): > 100 µM (inactive)
GI50 (K562): > 100 µM (inactive)
GI50 (KM-20L2): > 100 µM (inactive)
GI50 (KM12): > 100 µM (inactive)
GI50 (LOX IMVI): > 100 µM (inactive)
GI50 (LXFL 529): > 100 µM (inactive)
GI50 (M14): > 100 µM (inactive)
GI50 (M19-MEL): > 100 µM (inactive)
GI50 (MOLT-4): > 100 µM (inactive)
GI50 (Malme-3M): > 100 µM (inactive)
GI50 (NCI-H226): > 100 µM (inactive)
GI50 (NCI-H23): > 100 µM (inactive)
GI50 (NCI-H460): > 100 µM (inactive)
GI50 (NCI-H522): > 100 µM (inactive)
GI50 (OVCAR-3): > 100 µM (inactive)
GI50 (OVCAR-4): > 100 µM (inactive)
GI50 (OVCAR-5): > 100 µM (inactive)
GI50 (OVCAR-8): > 100 µM (inactive)
GI50 (RPMI-8226): > 100 µM (inactive)
GI50 (RXF 393): > 100 µM (inactive)
GI50 (RXF 631): > 100 µM (inactive)
GI50 (SF-268): > 100 µM (inactive)
GI50 (SF-295): > 100 µM (inactive)
GI50 (SF-539): > 100 µM (inactive)
GI50 (SK-MEL-5): > 100 µM (inactive)
GI50 (SK-OV-3): > 100 µM (inactive)
GI50 (SN12C): > 100 µM (inactive)
GI50 (SNB-19): > 100 µM (inactive)
GI50 (SNB-75): > 100 µM (inactive)
GI50 (SNB-78): > 100 µM (inactive)
GI50 (SR): > 100 µM (inactive)
GI50 (SW-620): > 100 µM (inactive)
GI50 (TK-10): > 100 µM (inactive)
GI50 (U-251): > 100 µM (inactive)
GI50 (UACC-257): > 100 µM (inactive)
GI50 (UACC-62): > 100 µM (inactive)
GI50 (UO-31): > 100 µM (inactive)
GI50 (XF498): > 100 µM (inactive)

O=C1/C(=C/c2ccc(Cl)c(Cl)c2)CN(C(=O)CCN2CCOCC2)C/C1=C\c1ccc(Cl)c(Cl)c1
GI50 (BT-549): 0.0169 µM (active)
GI50 (CAKI-1): 1.51 µM (inactive)
GI50 (DLD-1): 0.182 µM (active)
GI50 (DMS-114): 0.746 µM (active)
GI50 (DMS-273): 1.12 µM (inactive)
GI50 (DU-145): 0.0373 µM (active)
GI50 (EKVX): 2.4 µM (inactive)
GI50 (HCC 2998): 2.09 µM (inactive)
GI50 (HOP-18): 2.55 µM (inactive)
GI50 (Hs-578T): 7.76 µM (inactive)
GI50 (KM-20L2): 1.38 µM (inactive)
GI50 (LOX IMVI): 0.00217 µM (active)
GI50 (LXFL 529): 1.56 µM (inactive)
GI50 (M19-MEL): 1.64 µM (inactive)
GI50 (MCF7): 0.0184 µM (active)
GI50 (MDA-MB-231): 0.00286 µM (active)
GI50 (MDA-MB-435): 0.0121 µM (active)
GI50 (MDA-N): 0.0145 µM (active)
GI50 (MOLT-4): 0.00283 µM (active)
GI50 (NCI-H226): 2.04 µM (inactive)
GI50 (NCI/ADR-RES): 0.0043 µM (active)
GI50 (OVCAR-3): 0.00454 µM (active)
GI50 (OVCAR-4): 0.00395 µM (active)
GI50 (PC-3): 0.00331 µM (active)
GI50 (RXF 631): 2.94 µM (inactive)
GI50 (SNB-78): 2.66 µM (inactive)
GI50 (UACC-62): 1.71 µM (inactive)

COc1ccc(/C(Cl)=C(\C=O)c2ccc(F)cc2)cc1OC
GI50 (A498): 20 µM (inactive)
GI50 (ACHN): 16.8 µM (inactive)
GI50 (CAKI-1): 19.1 µM (inactive)
GI50 (CCRF-CEM): 10.7 µM (inactive)
GI50 (COLO 205): 19.6 µM (inactive)
GI50 (DLD-1): 21.8 µM (inactive)
GI50 (DMS-114): 14.4 µM (inactive)
GI50 (DMS-273): 27.4 µM (inactive)
GI50 (EKVX): 5 µM (inactive)
GI50 (HCT-116): 15.4 µM (inactive)
GI50 (HCT-15): 12.8 µM
GI50 (HL-60): 7.16 µM (inactive)
GI50 (HOP-18): 12.9 µM (inactive)
GI50 (HOP-62): 15.2 µM (inactive)
GI50 (HOP-92): 6.32 µM (inactive)
GI50 (HT-29): 15.4 µM (inactive)
GI50 (IGROV-1): 31.9 µM (inactive)
GI50 (K562): 16.8 µM (inactive)
GI50 (KM-20L2): 16.2 µM (inactive)
GI50 (LOX IMVI): 14.2 µM (inactive)
GI50 (LXFL 529): 11.5 µM (inactive)
GI50 (M14): 17.6 µM (inactive)
GI50 (M19-MEL): 21 µM (inactive)
GI50 (MOLT-4): 9.91 µM (inactive)
GI50 (Malme-3M): 30.5 µM (inactive)
GI50 (NCI-H226): 14 µM (inactive)
GI50 (NCI-H23): 16.6 µM (inactive)
GI50 (NCI-H460): 19.3 µM (inactive)
GI50 (NCI-H522): 12.3 µM (inactive)
GI50 (OVCAR-3): 22.8 µM (inactive)
GI50 (OVCAR-8): 21.5 µM (inactive)
GI50 (RPMI-8226): 6.64 µM (inactive)
GI50 (RXF 631): 19.9 µM (inactive)
GI50 (SF-268): 13.5 µM (inactive)
GI50 (SF-295): 21.6 µM (inactive)
GI50 (SF-539): 23 µM (inactive)
GI50 (SK-MEL-28): 24 µM (inactive)
GI50 (SK-MEL-2): 16.4 µM (inactive)
GI50 (SK-MEL-5): 15.3 µM (inactive)
GI50 (SK-OV-3): 39.4 µM (inactive)
GI50 (SN12C): 15.9 µM (inactive)
GI50 (SNB-19): 37.4 µM (inactive)
GI50 (SNB-75): 3.22 µM (inactive)
GI50 (SNB-78): 15.3 µM (inactive)
GI50 (SW-620): 28.7 µM (inactive)
GI50 (TK-10): 34.3 µM (inactive)
GI50 (U-251): 15.6 µM (inactive)
GI50 (UACC-62): 14.5 µM (inactive)
GI50 (UO-31): 16.4 µM (inactive)
